Data taken from patent US20240269155A1, “METHODS AND USES OF BORON COMPOUNDS IN THE TREATMENT OF NONTUBERCULOUS MYCOBACTERIUM INFECTIONS AND PHARMACEUTICAL COMPOSITIONS FOR TREATMENT OF SAME” (priority 2022, published 2024).
Read-outs that look alike come from different tables or passages of the source.

Key:
M. massiliense = assay: MIC determination (CLSI M24-A2); assay type: cell-based, Mycobacterium massiliense
Experimental: (§1) The in vitro activity of the parent boron compound described herein was assessed by standard testing procedures such as the determination of minimum inhibitory concentration (MIC) as described in Clinical and Laboratory Standards Institute (CLSI) document M24-A2. Lower MIC values indicate high antibacterial activity, while higher MIC values indicate a reduced antibacterial activity. Generally, MIC values of about ≤2 mg/L indicate a good therapeutic (i.e., suitable for therapy) potency for antibacterial drugs, while MIC values of ≥8 mg/L indicate a lack of therapeutically useful activity for a test compound.
(§2) (MIC ranges from 0.063-2 mg/L).

M. intercelleulare = assay: MIC determination (CLSI M24-A2); assay type: cell-based, Mycobacterium intercelleulare
Experimental: as §1, §2

M. smegmatis = assay: MIC determination (CLSI M24-A2); assay type: cell-based, Mycobacterium smegmatis
Experimental: as §1, §2

Mycobacteria pathogens = assay: MIC against mycobacteria pathogens, summary over species; assay type: cell-based, nontuberculous Mycobacterium; conditions: for MIC range: M. intercelleulare, M. fortuitum, M. peregrinum, M. smegmatis, M. massiliense
M. abscessus CIP108297 = assay: M. abscessus mouse lung infection model; assay type: in vivo, BALB/c mice
Experimental: To establish the efficacy of the compounds described herein in vivo, an M. abscessusmouse lung infection model was performed. Groups of BALB/c mice (The mice were randomly divided into groups with 6 mice in each group) were administered cyclophosphamide one week before infection, and then inoculated intranasally with M. abscessus CIP108297 (10^7 CFU/mouse). Three days after infection, the mice were subsequently treated with 10 mg/kg of the compound of Example 4 or GSK656 administered daily by subcutaneous, or 100 mg/kg linezolid (an approved antibiotic) or 200 mg/kg clarithromycin (an approved antibiotic) administered daily by oral gavage. […] This may be attributed to the surprising finding of lower MBC in the compound of Example 4.

[1] = system: clinical isolates of M. abscessus complex; assay: MIC against clinical isolates of M. abscessus complex; assay type: cell-based, M. abscessus and M. massiliense
M. avium = assay: MIC determination (CLSI M24-A2); assay type: cell-based, Mycobacterium avium
Experimental: as §1, §2

[2] = Lung distribution study in mouse; assay type: in vivo, Balb/C mouse; conditions: 10 mg/kg iv
[3] = Rat PK model, intravenous or oral gavage; assay type: in vivo, SD rats; conditions: 5 mg/kg, parent compound Example 4 quantified
Excerpt: To further elucidate the therapeutic potential of drug compounds, pharmacokinetic (PK) data is often used to establish key parameters predictive of a therapy outcome, such as the area under the curve (AUC) of a plot monitoring the change in systemic drug concentration over time. A higher AUC value indicates a greater exposure to the drug, commonly associated with a greater therapeutic potential due to a higher amount of drug available to combat the infection. In contrast, a lower AUC value indicates a reduced exposure to the drug, resulting in a reduced amount of antibiotic available to combat bacterial infections. To that end, the compounds described herein were tested in the rat PK model of oral administration performed analogously to the methods described in the monograph Current Protocols in Pharmacology, 2005, 7.1.1-7.1.26, John Wiley & Sons, Inc.
All the compounds were administered to SD rats (The rats were randomly divided into groups with 3 rats in each group) by intravenous or oral gavage. The prodrugs convert to the parent drug molecule in vivo. Therefore, only the parent compound Example 4 was analyzed and quantified in all test samples. […] Furthermore, based on the known comparison of rodent tests to human data (such as known species-to-species PK scaling), this is possible with a lower dosage for therapy in humans.

M. peregrinum = assay: MIC determination (CLSI M24-A2); assay type: cell-based, Mycobacterium peregrinum
Experimental: as §1, §2

M. gordonae = assay: MIC determination (CLSI M24-A2); assay type: cell-based, Mycobacterium gordonae
Experimental: as §1, §2

[4] = system: clinical isolates of M. abscessus complex; assay: MBC against clinical isolates of M. abscessus complex; assay type: cell-based, M. abscessus and M. massiliense; conditions: for Classification: from MBC/MIC ratio
M. scrofulaceum = assay: MIC determination (CLSI M24-A2); assay type: cell-based, Mycobacterium scrofulaceum
Experimental: as §1, §2

M. abscessus = assay: MIC determination (CLSI M24-A2); assay type: cell-based, Mycobacterium abscessus
Experimental: as §1, §2

M. fortuitum = assay: MIC determination (CLSI M24-A2); assay type: cell-based, Mycobacterium fortuitum
Experimental: as §1, §2

[5] = 20 clinical isolates of M. abscessus complex

## [(2S,6R)-2-(Aminomethyl)-4-bora-3,5,8-trioxatricyclo[7.3.1.04,13]trideca-1(12),10-dien-6-yl]methanol hydrochloride [Example 4]
M. massiliense
  MIC: 0.063 µg/mL
M. intercelleulare
  MIC: 2 µg/mL
M. smegmatis
  MIC: 0.125 µg/mL
Mycobacteria pathogens; M. avium and M. intercelleulare
  fold more potent than GSK656 (MIC): 4 fold
Mycobacteria pathogens; across M. scrofulaceum, M. gordonae, M. avium, M. abscessus
  MIC range: 0.063 to 2 µg/mL
Mycobacteria pathogens; rapidly growing mycobacteria (RGM): M. abscessus
  MIC range: 0.063 to 0.125 µg/mL
M. abscessus CIP108297; 10 mg/kg daily subcutaneous, treatment from 3 days after infection, lung CFU at 2 weeks post-infection
  reduction in bacteria in the lungs compared to the untreated groups: ~7.8 log 10 CFU
M. abscessus CIP108297; 2-weeks post-infection, treated group
  lung pathology, H&E stained tissue sections: pathologic changes were rare and lung lesions were negligible
M. abscessus CIP108297; both 10 mg/kg daily subcutaneous, 2 weeks post-infection
  organisms in the lungs compared to animals treated with GSK656: reduced markedly
[1]
  MIC: 0.063 µg/mL
[1]; clinical isolate A35
  MIC: 0.063 µg/mL
[1]; clinical isolate A51
  MIC: 0.063 µg/mL
[1]; clinical isolate A197
  MIC: 0.063 µg/mL
[1]; clinical isolate A215
  MIC: 0.063 µg/mL
[1]; clinical isolate A217
  MIC: 0.063 µg/mL
[1]; clinical isolate A222
  MIC: 0.063 µg/mL
[1]; clinical isolate A255
  MIC: 0.063 µg/mL
[1]; clinical isolate A311
  MIC: 0.063 µg/mL
[1]; clinical isolate G73
  MIC: 0.063 µg/mL
[1]; clinical isolate G74
  MIC: 0.063 µg/mL
[1]; clinical isolate G87
  MIC: 0.063 µg/mL
[1]; clinical isolate G110
  MIC: 0.063 µg/mL
[1]; clinical isolate G164
  MIC: 0.063 µg/mL
[1]; clinical isolate G182
  MIC: 0.063 µg/mL
M. avium
  MIC: 2 µg/mL
[2]; analyte Example 4
  AUC ratio (lung/plasma): 2.39
[2]; analyte Example 4, lung
  AUClast: 12822 ng·h/g
  t1/2: 1.46 h
[2]; analyte Example 4, plasma
  AUClast: 5359 ng·h/mL
  t1/2: 1.87 h
[3]; iv
  AUC: 5661 ng·h/mL
  Cmax: 6776 ng/mL
[3]; oral
  AUC: 856 ng·h/mL
  Cmax: 139 ng/mL
  Oral bioavailability: 15%
M. peregrinum
  MIC: 0.125 µg/mL
M. gordonae
  MIC: 0.5 µg/mL
[4]
  MBC: 0.125 µg/mL
[4]; [5]
  MBC compared with GSK656: much lower MBC against all isolates tested
  bactericidal/bacteriostatic classification over the isolates: bactericidal against half of the isolates
[4]; clinical isolate A35
  MBC: 0.25 µg/mL
  Classification: Bactericidal (bactericidal if the MBC/MIC ratio was <4)
[4]; clinical isolate A51
  MBC: 0.25 µg/mL
  Classification: Bactericidal (bactericidal if the MBC/MIC ratio was <4)
[4]; clinical isolate A197
  MBC: 1 µg/mL
  Classification: Bacteriostatic (bacteriostatic if the ratio was >4)
[4]; clinical isolate A213
  MBC: 0.25 µg/mL
  Classification: Bactericidal (bactericidal if the MBC/MIC ratio was <4)
[4]; clinical isolate A215
  MBC: 0.5 µg/mL
  Classification: Bacteriostatic (bacteriostatic if the ratio was >4)
[4]; clinical isolate A217
  MBC: 0.5 µg/mL
  Classification: Bacteriostatic (bacteriostatic if the ratio was >4)
[4]; clinical isolate A222
  MBC: 0.25 µg/mL
  Classification: Bactericidal (bactericidal if the MBC/MIC ratio was <4)
[4]; clinical isolate A232
  Classification: Bactericidal (bactericidal if the MBC/MIC ratio was <4)
[4]; clinical isolate A255
  MBC: 0.25 µg/mL
  Classification: Bactericidal (bactericidal if the MBC/MIC ratio was <4)
[4]; clinical isolate A268
  MBC: 2 µg/mL
  Classification: Bacteriostatic (bacteriostatic if the ratio was >4)
[4]; clinical isolate A274
  MBC: 2 µg/mL
  Classification: Bacteriostatic (bacteriostatic if the ratio was >4)
[4]; clinical isolate A311
  MBC: 0.25 µg/mL
  Classification: Bactericidal (bactericidal if the MBC/MIC ratio was <4)
[4]; clinical isolate A353
  MBC: 0.25 µg/mL
  Classification: Bactericidal (bactericidal if the MBC/MIC ratio was <4)
[4]; clinical isolate G73
  MBC: 1 µg/mL
  Classification: Bacteriostatic (bacteriostatic if the ratio was >4)
[4]; clinical isolate G74
  MBC: 1 µg/mL
  Classification: Bacteriostatic (bacteriostatic if the ratio was >4)
[4]; clinical isolate G87
  MBC: 0.5 µg/mL
  Classification: Bacteriostatic (bacteriostatic if the ratio was >4)
[4]; clinical isolate G104
  MBC: 0.25 µg/mL
  Classification: Bactericidal (bactericidal if the MBC/MIC ratio was <4)
[4]; clinical isolate G110
  MBC: 1 µg/mL
  Classification: Bacteriostatic (bacteriostatic if the ratio was >4)
[4]; clinical isolate G164
  MBC: 0.25 µg/mL
  Classification: Bactericidal (bactericidal if the MBC/MIC ratio was <4)
[4]; clinical isolate G182
  MBC: 1 µg/mL
  Classification: Bacteriostatic (bacteriostatic if the ratio was >4)
M. scrofulaceum
  MIC: 0.25 µg/mL
M. abscessus
  MIC: 0.063 µg/mL
M. fortuitum
  MIC: 0.125 µg/mL
